Calls of active or inactive are those of the source. No cut-off for these calls is given here.
Tests used:
Type in all cases: protein assay
[1] = target: T1, DNA topoisomerase II (Homo sapiens) (UniProt P11388+Q02880); assay: Compound was tested in vitro for inhibitory effect on DNA topoisomerase II activity at a concentration of 3.2 uM; No inhibition
[2] = target: T1, DNA topoisomerase II (Homo sapiens); assay: Compound was tested in vitro for inhibitory effect on DNA topoisomerase II activity at a concentration of 12.5 uM; Evidence inhibition
[3] = target: T1, DNA topoisomerase II (Homo sapiens); assay: Compound was tested in vitro for inhibitory effect on DNA topoisomerase II activity at a concentration of 25 uM; […]
[4] = target: T1, DNA topoisomerase II (Homo sapiens); assay: Compound was tested in vitro for inhibitory effect on DNA topoisomerase II activity at a concentration of 6.3 uM; Slight inhibition
[5] = target: T1, DNA topoisomerase II (Homo sapiens); assay: Compound was tested in vitro for inhibitory effect on DNA topoisomerase II activity at a concentration of 50 uM; […]
[6] = target: T1, DNA topoisomerase II (Homo sapiens); assay: Compound was tested in vitro for inhibitory effect on DNA topoisomerase II activity at a concentration of 100 uM; […]
[7] = target: T1, DNA topoisomerase II (Homo sapiens); assay: Compound was tested in vitro for inhibitory effect on DNA topoisomerase II activity at a concentration of 6.3 uM; No inhibition
[8] = target: T1, DNA topoisomerase II (Homo sapiens); assay: Compound was tested in vitro for inhibitory effect on DNA topoisomerase II activity at a concentration of 12.5 uM; No inhibition
[9] = target: T1, DNA topoisomerase II (Homo sapiens); assay: Compound was tested in vitro for inhibitory effect on DNA topoisomerase II activity at a concentration of 25 uM; No inhibition
[10] = target: T1, DNA topoisomerase II (Homo sapiens); assay: Compound was tested in vitro for inhibitory effect on DNA topoisomerase II activity at a concentration of 50 uM; Slight inhibition
[11] = target: T1, DNA topoisomerase II (Homo sapiens); assay: Compound was tested in vitro for inhibitory effect on DNA topoisomerase II activity at a concentration of 100 uM; Evidence inhibition
[12] = target: T1, DNA topoisomerase II (Homo sapiens); assay: Compound was tested in vitro for inhibitory effect on DNA topoisomerase II activity at a concentration of 100 uM; No inhibition

Question: What does the source list for `C=C(C)[C@@H]1CC[C@@H]2C(=CC[C@@]3(C)[C@@H]4CC[C@H](C(C)C)[C@@]4(C)CC[C@]23C)[C@@]1(C)CCC(=O)O`?
Answer: Activity [1]: inactive; Activity [2]: Evidence inhibition; Activity [3]: Slight inhibition; Activity [4]: Slight inhibition; Activity [5]: Slight inhibition; Activity [6]: Slight inhibition

Question: How did the Activity [1] turn out when `C=C(C)[C@@H]1CC[C@@H]2C(=CC[C@@]3(C)[C@@H]4CC[C@H](C(C)C)[C@@]4(C)CC[C@]23C)[C@@]1(C)CCCO` was run?
Answer: inactive

Question: What about the Activity [2] of the same compound?
Answer: Evidence inhibition

Question: And the Activity [3]?
Answer: Slight inhibition

Question: What about the Activity [4] of the same compound?
Answer: Slight inhibition

Question: And the Activity [5]?
Answer: Slight inhibition

Question: What about the Activity [6] of the same compound?
Answer: Slight inhibition

Question: With `C=C(C)[C@@H]1CC[C@@H]2C(=CC[C@@]3(C)[C@@H]4CC[C@H](C(C)C)[C@@]4(C)CC[C@]23C)[C@@]1(C)CCC(=O)OCc1ccccc1` as the compound, how does the Activity [1] read?
Answer: inactive

Question: And the Activity [7]?
Answer: inactive

Question: And the Activity [8]?
Answer: inactive

Question: And the Activity [9]?
Answer: inactive

Question: And the Activity [10]?
Answer: Slight inhibition

Question: What about the Activity [11] of the same compound?
Answer: Evidence inhibition

Question: How did the Activity [12] turn out when `CC(C)[C@H]1CC[C@@H]2[C@]1(C)CC[C@]1(C)C3=C(CC[C@@]21C)[C@@]1(C)CC[C@H](O)C(C)(C)C1CC3` (some centres undefined) was run?
Answer: inactive

Question: How did the Activity [12] turn out when `C=C(C)[C@@H]1CC[C@@H]2C(=CC[C@@]3(C)[C@@H]4CC[C@H](C(C)C)[C@@]4(C)CC[C@]23C)[C@@]1(C)CCC(=O)OC` was run?
Answer: inactive

Question: With `CC(C)[C@H]1CC[C@@H]2[C@]1(C)CC[C@]1(C)C3=C([C@H](O)C[C@@]21C)[C@@]1(C)CC[C@H](O)C(C)(C)C1CC3=O` (some centres undefined) as the compound, how does the Activity [12] read?
Answer: inactive

Question: With `CC(C)[C@H]1CC[C@@H]2[C@]1(C)CC[C@]1(C)C3=C(C(=O)C[C@@]21C)[C@@]1(C)CC[C@H](O)C(C)(C)C1CC3=O` (some centres undefined) as the compound, how does the Activity [12] read?
Answer: inactive

Question: With `CC(C)[C@H]1CC[C@@H]2[C@]1(C)CC[C@]1(C)C3=C(C(=O)C[C@@]21C)[C@@]1(C)CC[C@H](O)C(C)(C)C1C[C@@H]3O` (some centres undefined) as the compound, how does the Activity [12] read?
Answer: inactive

Question: Which Activity [1] does the source give for `COc1cc([C@@H]2c3cc4c(cc3[C@@H](O[C@@H]3O[C@@H]5CO[C@@H](C)O[C@H]5[C@H](O)[C@H]3O)[C@H]3COC(=O)[C@H]23)OCO4)cc(OC)c1O` here?
Answer: inactive

Question: What about the Activity [7] of the same compound?
Answer: inactive

Question: And the Activity [8]?
Answer: inactive

Question: What about the Activity [9] of the same compound?
Answer: inactive

Question: And the Activity [10]?
Answer: Slight inhibition

Question: What about the Activity [11] of the same compound?
Answer: Evidence inhibition
